# Source: the NIST ThermoML archive (doi:10.1016/j.tca.2019.178319)
# ± gives the expanded uncertainty stated by the source.
# Conditions: Crystal; for mass density: 298 K, 101.33 kPa, X-ray diffraction; for Normal melting temperature: DTA
SMILES,mass density [kg/m3],Normal melting temperature [°C]
[I][Bi]([I])[I] [bismuth triiodide],5770 ± 20,407 ± 4
[Bi+3].[Bi+3].[Se-2].[Se-2].[Se-2] [bismuth(III) selenide],7660 ± 30,707 ± 6
[Bi+3].[Bi+3].[S-2].[S-2].[S-2] [bismuth(III) sulfide],6800 ± 20,777 ± 6
